Assay: xn = mol fraction of the nth substance listed, in the solute-free solvent

CC(=O)Nc1ccc(OC(=O)c2ccccc2OC(C)=O)cc1 + CN1CCCC1=O + O
solubility (g/100 g solution)
Details | 278.15 K | 283.15 K | 288.15 K | 293.15 K | 298.15 K | 303.15 K | 308.15 K | 313.15 K | 318.15 K
x2 = 0.0198 | 0.0101 | 0.0143 | 0.02 | 0.0278 | 0.0388 | 0.0522 | 0.0688 | 0.0923 | 0.122
x2 = 0.04347 | 0.0672 | 0.0901 | 0.121 | 0.159 | 0.209 | 0.268 | 0.349 | 0.446 | 0.569
x2 = 0.07228 | 0.275 | 0.355 | 0.448 | 0.581 | 0.725 | 0.903 | 1.13 | 1.39 | 1.7
x2 = 0.1081 | 0.8 | 0.998 | 1.25 | 1.51 | 1.85 | 2.22 | 2.69 | 3.19 | 3.81
x2 = 0.1538 | 1.62 | 1.95 | 2.37 | 2.85 | 3.4 | 4.01 | 4.67 | 5.48 | 6.35
x2 = 0.2143 | 2.87 | 3.37 | 3.94 | 4.63 | 5.38 | 6.15 | 7.12 | 8.13 | 9.18
x2 = 0.2979 | 4.29 | 4.95 | 5.76 | 6.59 | 7.51 | 8.56 | 9.7 | 10.8 | 12.1
x2 = 0.421 | 5.72 | 6.53 | 7.43 | 8.43 | 9.49 | 10.7 | 11.8 | 13.2 | 14.5
x2 = 0.6207 | 6.55 | 7.48 | 8.44 | 9.55 | 10.7 | 11.9 | 13.3 | 14.7 | 16.1

O=c1[nH]cc(F)c(=O)[nH]1 + CN(C)C=O + C1CCOC1
solubility (g/100 g solution)
Details | 283.15 K | 288.15 K | 293.15 K | 298.15 K | 303.15 K | 308.15 K | 313.15 K | 318.15 K | 323.15 K
x2 = 0.1978 | 0.137 | 0.174 | 0.209 | 0.264 | 0.33 | 0.423 | 0.551 | 0.66 | 0.816
x2 = 0.3967 | 0.188 | 0.24 | 0.293 | 0.37 | 0.468 | 0.581 | 0.735 | 0.883 | 1.07
x2 = 0.5967 | 0.283 | 0.352 | 0.434 | 0.533 | 0.653 | 0.814 | 1.01 | 1.24 | 1.51
x2 = 0.7978 | 0.461 | 0.564 | 0.685 | 0.829 | 0.996 | 1.23 | 1.51 | 1.84 | 2.23

CC(=O)Nc1ccc(OC(=O)c2ccccc2OC(C)=O)cc1 + CN(C)C=O + O
solubility (g/100 g solution)
Details | 278.15 K | 283.15 K | 288.15 K | 293.15 K | 298.15 K | 303.15 K | 308.15 K | 313.15 K | 318.15 K
x2 = 0.02666 | 0.00846 | 0.0119 | 0.016 | 0.0222 | 0.0297 | 0.0399 | 0.0526 | 0.0698 | 0.0891
x2 = 0.05806 | 0.0473 | 0.0628 | 0.084 | 0.109 | 0.141 | 0.18 | 0.232 | 0.291 | 0.365
x2 = 0.09556 | 0.235 | 0.295 | 0.376 | 0.471 | 0.571 | 0.703 | 0.866 | 1.05 | 1.27
x2 = 0.1412 | 0.633 | 0.777 | 0.947 | 1.16 | 1.39 | 1.68 | 1.97 | 2.35 | 2.77
x2 = 0.1978 | 1.3 | 1.55 | 1.82 | 2.17 | 2.52 | 2.94 | 3.41 | 3.9 | 4.5
x2 = 0.27 | 2.25 | 2.63 | 3.06 | 3.49 | 4.01 | 4.6 | 5.22 | 5.91 | 6.7
x2 = 0.3652 | 3.47 | 3.96 | 4.51 | 5.08 | 5.72 | 6.42 | 7.14 | 7.91 | 8.74
x2 = 0.4965 | 4.8 | 5.32 | 5.97 | 6.58 | 7.24 | 7.99 | 8.71 | 9.48 | 10.3
x2 = 0.6893 | 6.08 | 6.62 | 7.2 | 7.86 | 8.46 | 9.14 | 9.88 | 10.5 | 11.3

O=c1[nH]cc(F)c(=O)[nH]1 + CO + C1CCOC1
solubility (g/100 g solution)
Details | 283.15 K | 288.15 K | 293.15 K | 298.15 K | 303.15 K | 308.15 K | 313.15 K | 318.15 K | 323.15 K
x2 = 0.36 | 0.152 | 0.171 | 0.193 | 0.219 | 0.254 | 0.294 | 0.348 | 0.403 | 0.473
x2 = 0.6 | 0.283 | 0.317 | 0.356 | 0.407 | 0.472 | 0.546 | 0.639 | 0.745 | 0.862
x2 = 0.7714 | 0.423 | 0.483 | 0.552 | 0.636 | 0.73 | 0.876 | 1.04 | 1.23 | 1.42
x2 = 0.9 | 0.58 | 0.665 | 0.789 | 0.914 | 1.05 | 1.25 | 1.43 | 1.65 | 1.85

O=C1NS(=O)(=O)c2ccccc21 + CO + CC#N
solubility (g/100 g solution)
Details | x2 = 0.1002 | x2 = 0.2003 | x2 = 0.2998 | x2 = 0.4002 | x2 = 0.4998 | x2 = 0.6003 | x2 = 0.7001 | x2 = 0.7995 | x2 = 0.9003
293.15 K | 5.52 | 7.2 | 8.84 | 9.66 | 10 | 10.1 | 9.63 | 8.67 | 7.25
298.15 K | 5.88 | 7.96 | 9.73 | 10.6 | 11 | 11.1 | 10.6 | 9.56 | 8.07
303.15 K | 6.65 | 9.04 | 10.9 | 11.9 | 12.5 | 12.5 | 12.1 | 11 | 9.1
308.15 K | 7.35 | 9.93 | 12.1 | 13.2 | 13.8 | 14 | 13.6 | 12.1 | 10.1
313.15 K | 8.31 | 11.2 | 13.3 | 14.7 | 15.4 | 15.6 | 15.1 | 13.9 | 11.7
318.15 K | 9.32 | 12.7 | 15.2 | 16.8 | 17.6 | 17.7 | 17.2 | 15.8 | 13.3
323.15 K | 10.6 | 14.1 | 16.7 | 18.4 | 19.3 | 19.6 | 19.1 | 17.6 | 15.1

CC1(C)SC2C(NC(=O)C(NC(=O)N3CCNC3=O)c3ccccc3)C(=O)N2C1C(=O)O (centres undefined) + CO + CC(C)O
solubility (g/100 g solution)
Details | 278.15 K | 283.15 K | 288.15 K | 293.15 K | 298.15 K | 303.15 K | 308.15 K | 313.15 K | 318.15 K | 323.15 K
x2 = 0.1 | 0.0982 | 0.114 | 0.133 | 0.163 | 0.195 | 0.225 | 0.276 | 0.333 | 0.411 | 0.503
x2 = 0.199 | 0.115 | 0.133 | 0.155 | 0.196 | 0.228 | 0.289 | 0.344 | 0.425 | 0.516 | 0.639
x2 = 0.3 | 0.139 | 0.156 | 0.188 | 0.229 | 0.277 | 0.331 | 0.4 | 0.501 | 0.611 | 0.735
x2 = 0.4 | 0.156 | 0.173 | 0.202 | 0.247 | 0.299 | 0.361 | 0.455 | 0.551 | 0.673 | 0.832
x2 = 0.497 | 0.165 | 0.186 | 0.227 | 0.266 | 0.323 | 0.394 | 0.504 | 0.618 | 0.749 | 0.926
x2 = 0.6 | 0.186 | 0.22 | 0.255 | 0.298 | 0.374 | 0.448 | 0.55 | 0.678 | 0.811 | 0.994
x2 = 0.7 | 0.215 | 0.243 | 0.295 | 0.353 | 0.42 | 0.494 | 0.625 | 0.742 | 0.889 | 1.13
x2 = 0.8 | 0.251 | 0.297 | 0.35 | 0.43 | 0.49 | 0.584 | 0.732 | 0.868 | 1.09 | 1.34
x2 = 0.9 | 0.297 | 0.368 | 0.427 | 0.507 | 0.602 | 0.722 | 0.92 | 1.14 | 1.37 | 1.68

CS(=O)(=O)c1ccc(C(O)C(CF)NC(=O)C(Cl)Cl)cc1 (centres undefined) + CO + O
solubility (g/100 g solution)
Details | 278.15 K | 283.15 K | 288.15 K | 293.15 K | 298.15 K | 303.15 K | 308.15 K | 313.15 K | 318.15 K
x2 = 0.05881 | 0.163 | 0.211 | 0.278 | 0.358 | 0.449 | 0.571 | 0.711 | 0.881 | 1.09
x2 = 0.1233 | 0.379 | 0.485 | 0.609 | 0.762 | 0.939 | 1.15 | 1.41 | 1.71 | 2.06
x2 = 0.1942 | 0.707 | 0.878 | 1.08 | 1.31 | 1.58 | 1.9 | 2.27 | 2.68 | 3.17
x2 = 0.2727 | 1.06 | 1.32 | 1.6 | 1.93 | 2.31 | 2.78 | 3.28 | 3.88 | 4.53
x2 = 0.3599 | 1.47 | 1.83 | 2.25 | 2.71 | 3.25 | 3.88 | 4.58 | 5.45 | 6.34
x2 = 0.4576 | 1.92 | 2.4 | 2.94 | 3.6 | 4.3 | 5.17 | 6.17 | 7.3 | 8.52
x2 = 0.5675 | 2.52 | 3.12 | 3.82 | 4.64 | 5.63 | 6.76 | 7.98 | 9.5 | 11
x2 = 0.6923 | 3.16 | 3.96 | 4.85 | 5.92 | 7.07 | 8.44 | 10.1 | 11.9 | 13.7
x2 = 0.835 | 3.91 | 4.85 | 5.98 | 7.23 | 8.65 | 10.3 | 12.2 | 14.2 | 16.5

O=c1ccc2ccccc2o1 + CO + O
solubility (g/100 g solution)
Details | 278.15 K | 283.15 K | 288.15 K | 293.15 K | 298.15 K | 303.15 K | 308.15 K | 313.15 K | 318.15 K
x2 = 0.1 | 0.0349 | 0.0594 | 0.105 | 0.171 | 0.28 | 0.435 | 0.655 | 0.988 | 1.41
x2 = 0.2 | 0.147 | 0.236 | 0.385 | 0.598 | 0.922 | 1.43 | 2.06 | 3.08 | 4.3
x2 = 0.3 | 0.262 | 0.479 | 0.869 | 1.6 | 2.58 | 4.47 | 7.35 | 12.8 | 19.9
x2 = 0.4 | 0.573 | 1.11 | 1.99 | 3.53 | 6.25 | 10.8 | 17.7 | 28.7 | 41.9
x2 = 0.5 | 1.13 | 1.96 | 3.86 | 6.41 | 11.2 | 18.6 | 28.4 | 43.2 | 59.6
x2 = 0.6 | 1.82 | 3.3 | 5.98 | 9.8 | 16 | 24.8 | 38.3 | 52.1 | 67
x2 = 0.7 | 2.64 | 4.53 | 7.8 | 12.7 | 20.2 | 30.4 | 42.9 | 59.2 | 73.3
x2 = 0.8 | 3.28 | 5.51 | 9.32 | 15.7 | 22.1 | 34.3 | 46.8 | 62.9 | 77.3
x2 = 0.9 | 4.13 | 6.53 | 11.1 | 17.5 | 25.5 | 36.7 | 50.3 | 65.3 | 79.6

Reference: the CheMixHub drug solubility set
